Consider three compounds from US20250163072A1, “MACROCYCLIC COMPOUNDS FOR THE TREATMENT OF CANCER” (Hoffmann-La Roche Inc., priority 2021, published 2025).

Data set [1] is described as follows: Human hepatocytes stability assay. The class given is in vitro ADME. The following applies: for CL_hep (Human): 1 μM compound, human hepatocytes 1×10^6 cells/mL; for Clearance Category: human hepatocytes. As to the method:
The hepatocyte stability assay measures the rate of disappearance of a compound from incubations with cryopreserved suspension hepatocytes from human. Positive controls, including Midazolam, Raloxifene and Dextromethorphan, are included in every experiment. Incubations consist of 1 μM tested compound and suspension of human hepatocytes (1×10^6 cells/mL) in supplemented Williams' E Medium with […] and 0.5% Penicillin-streptomycin. The hepatocyte suspension was incubated with intermittent shaking 900 rpm at 37° C., in a 5% CO2 incubator. The reaction was stopped by adding methanol containing internal standard (2 μM Tolbutamide) at 2, 10, 20, 40, 60 and 120 minutes after compound addition, depletion of the parent compound was monitored by LC-MS/MS analysis.

Data set [2] has as its system KRAS G12C in NCI-H358 cells. The data set is described as follows: pERK inhibition assay, NCI-H358. The class given is cell-based, human. As to conditions: Homo sapiens, 4 hours incubation. In a few lines: (§1)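 NCI-H358, AGS and SW620 cells in RPMI-1640/10% FBS were plated overnight, then exposed to compound (0.5% DMSO final) for 4 h. After fixation and permeabilization, phospho-ERK was quantified by in-cell ELISA (HRP secondary, TMB, OD450); IC50 from a 4-parameter sigmoidal fit.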

A further data set concerns AGS cells. Put plainly: Cell viability assay, AGS. The class given is cell-based, human. The following applies: Homo sapiens, 72 hours, Cell Counting Kit-8, read-out: G12D IC50. In a few lines: (§2)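 Cells were plated at 5,000 (NCI-H358) or 2,000 (AGS, SW620) per well and incubated overnight. They were then treated with compound in 0.5% DMSO for 72 h. Viability was read with CCK-8 as OD450 minus OD650 after 2 h, and IC50 came from a 4-parameter sigmoidal fit.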

A further data set relates to KRAS G12V in SW620. The data set is described as follows: pERK inhibition assay, SW620. Format: cell-based, human. The following applies: Homo sapiens, SW-620, SW620 cells, 4 hours incubation. In a few lines: as §1
Another data set concerns KRAS G12D in AGS cells. The data set is described as follows: pERK inhibition assay, AGS. Format: cell-based, human. As to conditions: Homo sapiens, 4 hours incubation. In a few lines: as §1
The target of data set [3] is T1, KRAS G12C-BRAF complex (Homo sapiens (Human), UniProt P01116+P62937, G12C). The data set is described as follows: KRAS-BRAF with CYPA (50 nM) interaction assay (TR-FRET), G12C. The following applies: GMPPNP loaded 6His-KRAS, GST-BRAF RBD. Format: binding. The protocol: (§3) In this example, TR-FRET was also used to measure the compound or compound-CYPA dependent disruption of the KRAS G12C-BRAF complex. This protocol was also used to measure disruption of KRAS G12D or KRAS G12V binding to BRAF by a compound of the invention, respectively. In assay buffer containing 25 mM HEPES PH=7.4 (4-(2-hydroxyethyl)-1-piperazineethanesulfonic acid, Thermo, 15630080), 0.002% Tween20, 0.1% BSA, 100 mM NaCl, 5 mM MgCl2, 10 μM GMPPNP (Guanosine 5'-[β,γ-imido]triphosphate trisodium salt hydrate, Sigma, G0635), tagless CYPA, GMPPNP loaded 6His-KRAS proteins, and GST-BRAF^RBD were mixed in a well of a 384-well assay plate at final concentrations of 50 nM, 6.25 nM and 1 nM, respectively. Compound was present in plate wells as a 16-point 3-fold dilution series starting at a final concentration of 10 μM and incubated for 3 hours. A mixture of MAb Anti-6His-XL665 (Cisbio, 61HISXLB) and Mab anti-GST-TB cryptate (Cisbio, 61GSTTLB) was then added at a final concentration of 6.67 nM and 0.21 nM, respectively, and the plate was incubated for an additional 1.5 hours. TR-FRET signal was read on a […] microplate reader (Ex320 nm, Em 665/615 nm). Compounds that facilitate disruption of the KRAS-BRAF complex were identified as those eliciting a decrease in the TR-FRET ratio relative to DMSO control wells.
A general note: TR-FRET usually uses a lanthanide donor and a delayed reading to cut background.

Data set [4] concerns the target KRAS G12V binding to BRAF (Homo sapiens (Human), UniProt P01116+P62937, G12V). Put plainly: KRAS-BRAF with CYPA (50 nM) interaction assay (TR-FRET), G12V. As to conditions: GMPPNP loaded 6His-KRAS, GST-BRAF RBD. The protocol:
as §3

The subject of a further data set is NCI-H358 cells. Put plainly: Cell viability assay, NCI-H358. Format: cell-based, human. The following applies: Homo sapiens, NCI-H358, 72 hours, Cell Counting Kit-8, read-out: G12C IC50. A digest of the protocol: as §2
(Formazan colour is commonly taken as a measure of viable cells.)

The next data set relates to SW620 cells. The data set is described as follows: Cell viability assay, SW620. As to conditions: Homo sapiens, SW-620, SW620, 72 hours, Cell Counting Kit-8, read-out: G12V IC50. Format: cell-based, human. A digest of the protocol: as §2
The nature of data set [5]: GSH reaction rates (inherent GSH reactivity). Format: in vitro ADME. As to conditions: for T1/2(hour) in GSH: potassium phosphate buffer pH 7.4. The protocol: Therefore Strategy to minimize the GSH metabolism is very critical. Short T1/2 in inherent GSH reaction indicated high GSH reaction rate. Thus T1/2 in inherent GSH reaction assay was determined for the screening of candidates. Reference compounds and compounds of this invention potentially could form conjugation with GSH either through halogenated moieties substitution reaction or direct Michael addition reaction. This test was therefore performed to check GSH reactivity of listed compounds. For inherent GSH reactivity determination, compounds at 1 μM were incubated at 37° C. with and without 5 mM GSH for 0, 0.5, 1, 2, 4 and 6 h in 100 mM potassium phosphate buffer at pH 7.4. At the end of the designated time points, samples were quenched with acetonitrile containing 10 mM N-ethylmaleimide and an internal standard. Quenched samples were centrifuged, and supernatants were analyzed by LC-MS/MS for compound quantification.

For data set [6], the target named is KRAS G12D binding to BRAF (Homo sapiens (Human), UniProt P01116+P62937, G12D). Put plainly: KRAS-BRAF with CYPA (50 nM) interaction assay (TR-FRET), G12D. As to conditions: GMPPNP loaded 6His-KRAS, GST-BRAF RBD. As to the method: as §3
In data set [7] the target is T1, KRAS G12C-BRAF complex. The data set is described as follows: KRAS G12C-BRAF NanoBit assay. The class given is cell-based. The following applies: HEK293 cells, SmBit-KRAS G12C and BRAF RBD-LgBit, 3 hours incubation. As to the method: This assay is to measure the ability of tested compounds in disruption of the KRAS G12C-BRAF complex at the cellular level, we established the NanoBit cellular assay in mammalian HEK293 (ATCC) cells. HEK293 cells were grown and maintained using DMEM medium (Thermo Fisher Scientific) with 10% fetal bovine serum and 1% penicillin/streptomycin. Both KRAS G12C and BRAF RBD were cloned into the NanoBit vectors ([…] vectors system, Promega) with the orientations SmBit-KRAS G12C and BRAF RBD-LgBit, respectively, and co-transfected into HEK293 cells. Cells were then selected with 100 μg/mL Hygromycin B (10687010, Thermo Fisher) and Blasticidin (5 μg/mL) for 4 weeks to get the stable cell pool. On the day of the assay, 75 nL of compound solution was presented in a 384-well assay plate as a 16-point 3-fold dilution starting from a final concentration of 30 μM in DMSO. Then cells were seeded at 10,000 cells/25 μL/well in a 384-well plate. After 3 hours of incubation, 6 μL of volume of Nano-Glo® Live Cell Substrate (Promega) was added into each well. Monitor luminescence using ultra384 model in Envision at 20 minutes. Compounds that facilitate disruption of the KRAS G12C-BRAF RBD complex were identified as those eliciting a decrease of luminescence relative to DMSO control wells.

Setting [8] is: 1 μM compound, 5 mM GSH, 37° C., pH 7.4, 6 hr.
[9] abbreviates: 1 μM compound, 5 mM GSH, 37° C.

T1 sequence (P01116-2 other isoform, or with tags, fused parts or gaps G12C): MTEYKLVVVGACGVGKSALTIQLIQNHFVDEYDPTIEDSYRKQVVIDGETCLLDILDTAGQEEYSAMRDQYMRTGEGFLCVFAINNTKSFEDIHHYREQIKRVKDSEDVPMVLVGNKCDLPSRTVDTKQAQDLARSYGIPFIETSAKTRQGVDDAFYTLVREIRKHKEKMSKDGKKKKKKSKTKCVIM
T1 sequence (P62937 whole entry): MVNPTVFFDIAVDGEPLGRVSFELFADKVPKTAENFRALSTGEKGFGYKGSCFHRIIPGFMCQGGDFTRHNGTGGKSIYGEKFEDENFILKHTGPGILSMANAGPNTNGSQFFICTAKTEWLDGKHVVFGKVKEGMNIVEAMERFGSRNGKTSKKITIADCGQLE
Chain of KRAS G12D binding to BRAF (P01116-2 other isoform, or with tags, fused parts or gaps G12D): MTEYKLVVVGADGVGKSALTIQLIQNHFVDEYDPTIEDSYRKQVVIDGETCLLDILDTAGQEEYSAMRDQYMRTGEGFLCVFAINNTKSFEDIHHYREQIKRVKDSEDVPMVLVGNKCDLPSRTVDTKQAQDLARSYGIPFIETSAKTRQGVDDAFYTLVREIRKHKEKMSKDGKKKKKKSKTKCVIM
Chain of KRAS G12D binding to BRAF (P62937 whole entry): as the sequence (P62937 whole entry) above
Chain of KRAS G12V binding to BRAF (P01116-2 other isoform, or with tags, fused parts or gaps G12V): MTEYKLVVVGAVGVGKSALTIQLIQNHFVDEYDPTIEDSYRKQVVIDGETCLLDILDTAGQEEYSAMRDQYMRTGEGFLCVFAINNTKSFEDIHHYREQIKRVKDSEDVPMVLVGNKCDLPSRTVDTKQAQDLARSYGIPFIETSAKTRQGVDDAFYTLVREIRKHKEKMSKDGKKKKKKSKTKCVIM
Chain of KRAS G12V binding to BRAF (P62937 whole entry): as the sequence (P62937 whole entry) above

One may read the IC50 as the midpoint of a concentration-inhibition curve. In the case of `CO[C@@H](C)c1ncc(N2CCN(C)CC2)cc1-c1c2c3cc(ccc3n1CC(F)(F)F)-c1csc(n1)C[C@H](NC(=O)[C@H](C(C)C)N(C)C(=O)[C@H]1CCN(C(=O)[C@H](F)Cl)C1)C(=O)N1CCC[C@H](N1)C(=O)OCC(C)(C)C2` (atropisomer, axis not shown; (M)) [Example 21, (3S)-1-[(2R)-2-chloro-2-fluoro-acetyl]-N-[(1S)-1-[[(7S,13S)-(20M)-20-[2-[(1S)-1-methoxyethyl]-5-(4-methylpiperazin-1-yl)-3-pyridyl]-17,17-dimethyl-8,14-dioxo-21-(2,2,2-trifluoroethyl)-15-oxa-4-thia-9,21,27,28-tetrazapentacyclo[17.5.2.12,5.19,13.022,26]octacosa-1(25),2,5(28),19,22(26),23-hexaen-7-yl]carbamoyl]-2-methyl-propyl]-N-methyl-pyrrolidine-3-carboxamide], the “CL_hep (Human)” value in data set [1] is less than 2.4 mL/min/kg. Besides, in data set [1], the “Clearance Category” value is recorded as “low (CL_hep (mL/min/kg)<6.96 is low clearance)”. Moreover, the IC50 in data set [2] was 1 nM; in the data set on AGS cells, 44 nM; in the data set on KRAS G12V in SW620, 5 nM; in the data set with KRAS G12D in AGS cells it was 14 nM; on KRAS G12C-BRAF complex [3] it was 21 nM; in data set [4], greater than 10000 nM. For the same compound, the values for the IC50 (with NCI-H358 cells; in the data set with SW620 cells; in data set [6]) were 0.3 nM, 8 nM and greater than 10000 nM, respectively. The “Remaining at 6 hr in GSH (%)” value in [5] (setting [8]) was found to be 88%. For the same compound, the “T1/2(hour) in GSH” value in [5] (setting [9]) is reported as “stable (If % depletion after 6 hour incubation is less than 20%, compounds were reported as stable)”.
Take `CCn1c(-c2cc(N3CCN(C)CC3)cnc2[C@H](C)OC)c2c3cc(ccc31)-c1csc(n1)C[C@H](NC(=O)[C@H](C(C)C)N(C)C(=O)[C@H]1CCN(C(=O)[C@H](F)Cl)C1)C(=O)N1CCCC(N1)C(=O)OCC(C)(C)C2` (stereo partly drawn) [Example 10, (3S)-1-[(2R)-2-chloro-2-fluoro-acetyl]-N-[(1S)-1-[[(7S,13S)-21-ethyl-(20M)-20-[2-[(1S)-1-methoxyethyl]-5-(4-methylpiperazin-1-yl)-3-pyridyl]-17,17-dimethyl-8,14-dioxo-15-oxa-4-thia-9,21,27,28-tetrazapentacyclo[17.5.2.12,5.19,13.022,26]octacosa-1(25),2,5(28),19,22(26),23-hexaen-7-yl]carbamoyl]-2-methyl-propyl]-N-methyl-pyrrolidine-3-carboxamide]: the “CL_hep (Human)” value in data set [1] was less than 2.4 mL/min/kg. The “Clearance Category” value in data set [1] is reported as “low (CL_hep (mL/min/kg)<6.96 is low clearance)”. The IC50 in data set [2] was determined as 3 nM; with AGS cells it was 52 nM; in the data set on KRAS G12V in SW620, 11 nM; with KRAS G12D in AGS cells, 31 nM; with NCI-H358 cells, 0.4 nM; against KRAS G12C-BRAF complex [7], 21 nM. Also, the IC50 with SW620 cells worked out at 59 nM. Moreover, in data set [5] (6 h, 1 μM, pH 7.4), the “Remaining at 6 hr in GSH (%)” value amounted to 85%.
With `CO[C@@H](C)c1ncc(N2CCN(C)CC2)cc1-c1c2c3cc(ccc3n1CC(F)(F)F)-c1csc(n1)C[C@H](NC(=O)[C@H](C(C)C)N1CCCC3(CCN(C(=O)[C@H](F)Cl)C3)C1=O)C(=O)N1CCC[C@H](N1)C(=O)OCC(C)(C)C2` (stereo partly drawn) [Example 19, (2S)-2-[2-[(2R)-2-chloro-2-fluoro-acetyl]-6-oxo-2,7-diazaspiro[4.5]decan-7-yl]-N-[(7S,13S)-(20M)-20-[2-[(1S)-1-methoxyethyl]-5-(4-methylpiperazin-1-yl)-3-pyridyl]-17,17-dimethyl-8,14-dioxo-21-(2,2,2-trifluoroethyl)-15-oxa-4-thia-9,21,27,28-tetrazapentacyclo[17.5.2.12,5.19,13.022,26]octacosa-1(25),2,5(28),19,22(26),23-hexaen-7-yl]-3-methyl-butanamide], in [1], the “CL_hep (Human)” value stood at 10.1 mL/min/kg. Further, the “Clearance Category” value in data set [1] is on record as “medium (16.24<CL_hep (mL/min/kg)>6.96 is medium clearance)”. For the same compound, the IC50 in [2] stood at 3 nM; in the data set with AGS cells, 18 nM; with KRAS G12V in SW620, 8 nM; with KRAS G12D in AGS cells, 28 nM; with NCI-H358 cells, 0.9 nM; against KRAS G12C-BRAF complex [7] it was 21 nM. Further, the IC50 with SW620 cells amounted to 15 nM. In data set [5] (setting [8]), the “Remaining at 6 hr in GSH (%)” value turned out to be 85%. Also, in [5] (setting [9]), the “T1/2(hour) in GSH” value was “stable (If % depletion after 6 hour incubation is less than 20%, compounds were reported as stable)”.
